Experimental data published in ChEMBL document CHEMBL5096240, “Discovery of Potent and Selective Inhibitors of Wild-Type and Gatekeeper Mutant Fibroblast Growth Factor Receptor (FGFR) 2/3” (J Med Chem, 2022).
Converted amounts (≈) assume the structure as drawn. The source made the active and inactive calls. The calls are words filed in the database; no cut-off is given here.

Assays:
CYP3A4 = CYP3A4 (Homo sapiens, UniProt P08684); assay: Inhibition of human liver microsomes CYP3A4 at 5 uM using midazolam or testosterone as substrate in presence of NADPH regenerating system by LC-MS/MS analysis relative to control; assay type: ADME, Microsome; settings: probe midazolam or testosterone
[1] = biological target: High affinity nerve growth factor receptor (Homo sapiens, UniProt P04629); assay: Inhibition of wild type partial length human TRKA (G475 to G790 residues) expressed in mammalian expression system using Ulight-p70S6K peptide substrate incubated for 90 mins in presence of ATP by HTRF assay
[2] = biological target: Mast/stem cell growth factor receptor Kit (Homo sapiens, UniProt P10721); assay: Inhibition of wild type partial length human KIT (I571 to D952 residues) expressed in bacterial expression system using Ulight-p70S6K peptide substrate incubated for 90 mins in presence of ATP by HTRF assay
[3] = biological target: Platelet-derived growth factor receptor beta (Homo sapiens, UniProt P09619); assay: Inhibition of wild type partial length human PDGFRbeta (V582 to Y1009 residues) expressed in bacterial expression system using Ulight-p70S6K peptide substrate incubated for 90 mins in presence of ATP by HTRF assay
Cytochrome P450 3A4 = Cytochrome P450 3A4 (Homo sapiens, UniProt P08684); assay: Inhibition of human liver microsomes CYP3A4 using midazolam or testosterone as substrate in presence of NADPH regenerating system by LC-MS/MS analysis; design: species or system Microsome
[4] = Apparent permeability in human Caco-2 cells at 50 uM incubated for 120 mins by LC-MS/MS analysis; assay type: ADME, cell-based
[5] = Solubility of compound in FaSSIF by HPLC assay; assay type: physicochemical
[6] = Solubility of compound in SGF by HPLC assay; assay type: physicochemical
[7] = Clearance in Sprague-Dawley rat assessed as hepatic blood flow at 0.73 mg/kg, iv measured upto 24 hrs by LC-MS/MS analysis; assay type: ADME, organism-based; settings: in vivo
[8] = Volume of distribution at steady state in Sprague-Dawley rat at 0.73 mg/kg, iv measured upto 24 hrs by LC-MS/MS analysis; assay type: ADME, organism-based; settings: in vivo, read-out: Vdss
[9] = Half life in Sprague-Dawley rat at 0.73 mg/kg, iv measured upto 24 hrs by LC-MS/MS analysis; assay type: ADME, organism-based; settings: in vivo
[10] = Cmax in Sprague-Dawley rat at 3.1 mg/kg, po measured upto 24 hrs by LC-MS/MS analysis; assay type: ADME, organism-based; design: time < 24 hrs, dose 3.1 mg/kg, route po; settings: in vivo
[11] = AUC in Sprague-Dawley rat at 3.1 mg/kg, po measured upto 24 hrs by LC-MS/MS analysis; assay type: ADME, organism-based; design: time < 24 hrs, dose 3.1 mg/kg, route po; settings: in vivo
[12] = Oral bioavailability in Sprague-Dawley rat at 3.1 mg/kg measured upto 24 hrs by LC-MS/MS analysis; assay type: ADME, organism-based; settings: in vivo
[13] = biological target: Fibroblast growth factor receptor 4 (Homo sapiens, UniProt P22455); assay: Inhibition of recombinant human FGFR4 (460 to 802 residues) using biotin-EQEDEPEGDYFEWLE-amide as substrate preincubated for 5 to 10 mins followed by substrate addition and measured after 1 hr by HTRF assay
[14] = biological target: Fibroblast growth factor receptor 2 (Homo sapiens, UniProt P21802); assay: Inhibition of N-terminal GST tagged recombinant human FGFR2 (400 to 821 residues) expressed in an Sf9 infected baculovirus expression system using biotin-EQEDEPEGDYFEWLE-amide as substrate preincubated for 5 to 10 mins followed by substrate addition and measured after 1 hr by HTRF assay
Mus musculus = assay: In vivo inhibition of ERK phosphorylation in human UMUC14 cells xenografted with NSG mouse at 100 mg/kg, po measured after 2 hrs by MSD assay; assay type: functional, organism-based

Sequence of High affinity nerve growth factor receptor (P04629 whole entry, the tested form may be a part): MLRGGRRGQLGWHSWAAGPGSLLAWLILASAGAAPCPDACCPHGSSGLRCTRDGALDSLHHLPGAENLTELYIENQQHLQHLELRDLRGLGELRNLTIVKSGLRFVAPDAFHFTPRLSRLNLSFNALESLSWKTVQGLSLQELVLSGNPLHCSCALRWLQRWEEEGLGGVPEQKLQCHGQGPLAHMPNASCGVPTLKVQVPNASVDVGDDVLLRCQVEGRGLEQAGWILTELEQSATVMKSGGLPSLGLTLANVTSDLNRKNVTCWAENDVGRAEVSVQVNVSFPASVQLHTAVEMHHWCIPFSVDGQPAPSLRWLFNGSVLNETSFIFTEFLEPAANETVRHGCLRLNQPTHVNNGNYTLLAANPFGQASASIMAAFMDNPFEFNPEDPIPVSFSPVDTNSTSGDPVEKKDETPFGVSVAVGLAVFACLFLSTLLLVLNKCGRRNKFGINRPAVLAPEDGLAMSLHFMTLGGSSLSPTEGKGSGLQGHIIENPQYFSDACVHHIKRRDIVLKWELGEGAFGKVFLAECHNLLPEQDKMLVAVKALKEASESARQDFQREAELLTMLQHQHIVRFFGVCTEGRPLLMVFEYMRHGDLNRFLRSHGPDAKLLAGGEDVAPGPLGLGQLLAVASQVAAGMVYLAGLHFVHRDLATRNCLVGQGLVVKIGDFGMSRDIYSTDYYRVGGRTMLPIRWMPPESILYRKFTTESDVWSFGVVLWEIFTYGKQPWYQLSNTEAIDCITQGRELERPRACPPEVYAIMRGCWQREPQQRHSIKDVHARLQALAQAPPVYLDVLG
Sequence of Cytochrome P450 3A4 (P08684 whole entry): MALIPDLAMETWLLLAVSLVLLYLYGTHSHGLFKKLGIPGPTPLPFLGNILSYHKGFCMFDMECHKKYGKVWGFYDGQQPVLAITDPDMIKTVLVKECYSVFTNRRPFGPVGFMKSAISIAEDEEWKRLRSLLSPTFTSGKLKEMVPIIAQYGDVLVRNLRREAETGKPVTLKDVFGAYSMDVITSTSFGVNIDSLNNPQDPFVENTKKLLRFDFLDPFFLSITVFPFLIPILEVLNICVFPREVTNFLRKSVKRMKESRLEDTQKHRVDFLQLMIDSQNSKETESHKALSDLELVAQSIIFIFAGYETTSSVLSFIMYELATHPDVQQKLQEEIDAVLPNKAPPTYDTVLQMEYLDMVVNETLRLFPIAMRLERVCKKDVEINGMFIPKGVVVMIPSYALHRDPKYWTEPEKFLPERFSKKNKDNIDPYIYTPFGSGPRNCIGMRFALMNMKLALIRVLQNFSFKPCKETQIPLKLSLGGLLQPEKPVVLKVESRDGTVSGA
Sequence of Platelet-derived growth factor receptor beta (P09619 whole entry, the tested form may be a part): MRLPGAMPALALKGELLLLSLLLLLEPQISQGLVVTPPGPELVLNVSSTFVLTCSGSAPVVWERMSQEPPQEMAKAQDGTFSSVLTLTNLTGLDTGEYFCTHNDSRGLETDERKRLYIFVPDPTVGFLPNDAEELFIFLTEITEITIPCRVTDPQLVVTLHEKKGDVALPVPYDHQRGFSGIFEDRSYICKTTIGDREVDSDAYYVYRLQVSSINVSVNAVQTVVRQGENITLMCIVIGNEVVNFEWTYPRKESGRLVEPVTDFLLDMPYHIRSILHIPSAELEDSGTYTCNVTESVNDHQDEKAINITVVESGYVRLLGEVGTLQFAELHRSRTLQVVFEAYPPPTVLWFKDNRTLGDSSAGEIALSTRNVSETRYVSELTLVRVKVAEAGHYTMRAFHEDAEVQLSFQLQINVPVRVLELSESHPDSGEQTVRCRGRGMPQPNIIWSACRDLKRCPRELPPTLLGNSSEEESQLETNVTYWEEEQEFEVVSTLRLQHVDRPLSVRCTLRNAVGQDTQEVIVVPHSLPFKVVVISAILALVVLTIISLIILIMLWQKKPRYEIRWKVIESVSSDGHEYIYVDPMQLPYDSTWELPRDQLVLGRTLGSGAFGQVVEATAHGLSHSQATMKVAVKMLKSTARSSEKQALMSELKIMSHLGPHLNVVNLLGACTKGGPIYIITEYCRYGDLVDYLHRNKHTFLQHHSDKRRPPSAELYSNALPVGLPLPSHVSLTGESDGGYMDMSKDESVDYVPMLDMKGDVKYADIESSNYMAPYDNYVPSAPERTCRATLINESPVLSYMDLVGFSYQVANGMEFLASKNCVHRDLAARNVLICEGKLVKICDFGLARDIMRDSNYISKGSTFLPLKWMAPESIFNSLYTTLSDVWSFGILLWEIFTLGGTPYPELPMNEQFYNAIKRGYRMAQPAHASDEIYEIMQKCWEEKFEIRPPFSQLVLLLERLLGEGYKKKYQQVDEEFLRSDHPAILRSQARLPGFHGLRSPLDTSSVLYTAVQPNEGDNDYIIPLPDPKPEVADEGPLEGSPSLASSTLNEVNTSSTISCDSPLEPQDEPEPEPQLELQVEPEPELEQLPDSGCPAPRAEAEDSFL
Sequence of Mast/stem cell growth factor receptor Kit (P10721 whole entry, the tested form may be a part): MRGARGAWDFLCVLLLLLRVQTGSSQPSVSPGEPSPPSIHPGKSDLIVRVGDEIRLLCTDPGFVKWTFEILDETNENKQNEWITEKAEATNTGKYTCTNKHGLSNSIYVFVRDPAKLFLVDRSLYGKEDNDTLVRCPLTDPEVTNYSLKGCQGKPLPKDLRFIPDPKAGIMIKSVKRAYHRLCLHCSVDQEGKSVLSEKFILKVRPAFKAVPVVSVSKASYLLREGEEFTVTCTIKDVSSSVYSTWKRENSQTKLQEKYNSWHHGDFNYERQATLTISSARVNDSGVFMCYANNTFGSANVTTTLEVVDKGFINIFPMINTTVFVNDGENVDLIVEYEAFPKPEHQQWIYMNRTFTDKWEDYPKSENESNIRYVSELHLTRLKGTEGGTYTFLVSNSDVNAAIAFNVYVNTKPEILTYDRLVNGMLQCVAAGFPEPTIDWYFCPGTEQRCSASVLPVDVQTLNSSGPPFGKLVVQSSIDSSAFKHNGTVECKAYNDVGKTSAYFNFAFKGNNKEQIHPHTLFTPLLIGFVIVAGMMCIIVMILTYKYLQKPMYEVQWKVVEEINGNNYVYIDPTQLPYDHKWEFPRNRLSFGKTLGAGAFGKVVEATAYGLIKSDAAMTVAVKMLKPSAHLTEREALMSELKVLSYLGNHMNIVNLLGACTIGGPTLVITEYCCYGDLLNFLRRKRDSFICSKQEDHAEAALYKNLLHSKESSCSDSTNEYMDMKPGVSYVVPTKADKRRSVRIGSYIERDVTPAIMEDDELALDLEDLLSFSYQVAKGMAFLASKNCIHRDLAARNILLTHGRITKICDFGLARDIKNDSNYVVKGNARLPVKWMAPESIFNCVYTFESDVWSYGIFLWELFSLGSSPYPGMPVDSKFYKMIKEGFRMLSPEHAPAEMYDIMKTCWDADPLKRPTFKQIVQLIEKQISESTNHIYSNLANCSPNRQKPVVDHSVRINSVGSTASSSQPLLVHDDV
Sequence of CYP3A4 (P08684 whole entry, the tested form may be a part): as the sequence (P08684 whole entry) above
Sequence of Fibroblast growth factor receptor 4 (P22455 whole entry, the tested form may be a part): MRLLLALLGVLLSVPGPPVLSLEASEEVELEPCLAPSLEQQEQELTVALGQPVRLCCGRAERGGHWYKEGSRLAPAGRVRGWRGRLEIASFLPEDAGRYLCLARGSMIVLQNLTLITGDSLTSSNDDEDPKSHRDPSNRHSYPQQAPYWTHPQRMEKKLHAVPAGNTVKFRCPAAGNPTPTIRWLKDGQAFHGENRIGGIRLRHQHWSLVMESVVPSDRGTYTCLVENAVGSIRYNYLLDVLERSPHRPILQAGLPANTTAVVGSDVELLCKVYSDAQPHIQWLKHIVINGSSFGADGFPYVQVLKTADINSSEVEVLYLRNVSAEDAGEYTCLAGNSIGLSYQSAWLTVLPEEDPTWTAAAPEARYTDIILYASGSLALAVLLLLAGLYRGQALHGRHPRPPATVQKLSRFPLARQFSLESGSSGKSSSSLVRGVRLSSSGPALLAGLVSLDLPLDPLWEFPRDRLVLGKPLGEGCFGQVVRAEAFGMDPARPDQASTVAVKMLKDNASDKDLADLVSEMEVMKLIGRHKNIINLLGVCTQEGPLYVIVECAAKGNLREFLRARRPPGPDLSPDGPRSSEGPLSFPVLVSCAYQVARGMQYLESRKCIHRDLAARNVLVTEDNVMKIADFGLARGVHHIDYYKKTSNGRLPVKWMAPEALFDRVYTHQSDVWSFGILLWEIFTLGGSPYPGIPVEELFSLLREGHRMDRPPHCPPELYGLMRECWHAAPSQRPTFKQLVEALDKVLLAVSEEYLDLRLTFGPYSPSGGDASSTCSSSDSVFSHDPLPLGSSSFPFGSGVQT
Sequence of Fibroblast growth factor receptor 2 (P21802 whole entry, the tested form may be a part): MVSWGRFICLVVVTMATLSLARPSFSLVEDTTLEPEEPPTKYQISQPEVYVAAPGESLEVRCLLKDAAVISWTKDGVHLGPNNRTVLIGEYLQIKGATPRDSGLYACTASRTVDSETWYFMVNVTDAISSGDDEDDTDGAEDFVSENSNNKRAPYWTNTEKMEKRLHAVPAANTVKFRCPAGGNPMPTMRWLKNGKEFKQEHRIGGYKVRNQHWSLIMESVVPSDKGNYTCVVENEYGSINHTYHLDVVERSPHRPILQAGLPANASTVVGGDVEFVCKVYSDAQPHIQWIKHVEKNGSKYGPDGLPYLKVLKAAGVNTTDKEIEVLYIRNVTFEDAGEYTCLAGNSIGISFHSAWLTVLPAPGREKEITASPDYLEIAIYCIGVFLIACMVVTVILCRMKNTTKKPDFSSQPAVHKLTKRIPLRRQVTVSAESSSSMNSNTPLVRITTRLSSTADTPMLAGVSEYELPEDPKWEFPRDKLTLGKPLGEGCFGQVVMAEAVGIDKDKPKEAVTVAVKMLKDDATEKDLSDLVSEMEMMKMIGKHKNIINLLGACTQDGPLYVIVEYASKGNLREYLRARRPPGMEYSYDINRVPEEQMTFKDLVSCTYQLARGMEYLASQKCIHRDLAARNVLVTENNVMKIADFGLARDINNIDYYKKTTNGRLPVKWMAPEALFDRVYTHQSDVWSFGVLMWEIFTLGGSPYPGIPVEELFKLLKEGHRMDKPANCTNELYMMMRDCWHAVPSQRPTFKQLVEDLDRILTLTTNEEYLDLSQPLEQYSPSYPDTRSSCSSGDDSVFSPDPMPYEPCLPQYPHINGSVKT

| SMILES | IC50 [1] [nM] | IC50 [2] [nM] | IC50 [3] [nM] | IC50 (Cytochrome P450 3A4) [nM] | Papp at 2 h, 50 µM [4] [×10⁻⁶ cm/s] | further results |
| --- | --- | --- | --- | --- | --- | --- |
| CNC(=O)c1cncc(-c2cnn3cc(-c4cnn(C)c4)c(OC4CCOC4)nc23)c1 (racemic) |  |  |  | > 5000 | 0.2 | inhibition at 5 µM (CYP3A4): 15% |
| CNC(=O)c1ccc(F)c(-c2cnc3cc(-c4cnn(C)c4)c(OC)nn23)c1 | 11 | 180 | 348 |  |  |  |
| [2H]C([2H])([2H])NC(=O)c1cncc(-c2cnn3cc(-c4cnn(C(C)C)c4)c(O[C@H]4CCOC4)nc23)c1 |  |  |  | > 25000 | 2 | solubility [5]: 18 µg/mL (≈ 40 µM); solubility [6]: 679 µg/mL (≈ 1510 µM); QH [7]: 35%; Vd [8]: 1.6 L/kg; half-life [9]: 1.7 h; Cmax [10]: 2.3 µM; AUC at 24 h [11]: 5.11 µM·h; bioavailability [12]: 82%; IC50 [13]: 145 nM |
| CNC(=O)c1cccc(-c2cnc3cc(-c4cnn(C)c4)c(OC)nn23)c1 | 58 |  | 38 |  |  |  |
| [2H]C([2H])([2H])NC(=O)c1cncc(-c2cnn3cc(-c4ccn(C(C)C)n4)c(N[C@H]4CCOC4)nc23)c1 |  |  |  |  |  | IC50 [14]: 0.2 nM |
| CCNC(=O)c1cncc(-c2cnn3cc(-c4cnn(CC)c4)c(O[C@H]4CCOC4)nc23)c1 |  |  |  | > 25000 | 0.6 |  |

Further lines, with some results ahead:

| IC50 [1] [nM] | IC50 [2] [nM] | IC50 [3] [nM] | IC50 (Cytochrome P450 3A4) [nM] | Papp at 2 h, 50 µM [4] [×10⁻⁶ cm/s] | SMILES | further results |
| --- | --- | --- | --- | --- | --- | --- |
| 7300 | 284 | 370 | > 5000 |  | CNC(=O)c1cncc(-c2cnc3cc(-c4cnn(C)c4)c(OC4CCOC4)nn23)c1 (configuration not stated) | inhibition at 5 µM (CYP3A4): 0% |
| 443 | 619 | 800 |  |  | CNC(=O)c1cc(-c2cnc3cc(-c4cnn(C)c4)c(O[C@H]4CCOC4)nn23)c(F)c(C(F)F)c1 |  |
| 363 | 22 | 126 |  |  | CNC(=O)c1cc(C)cc(-c2cnc3cc(-c4cnn(C(C)C)c4)c(O[C@H]4CCOC4)nn23)c1 |  |
| 293 | 1660 | 1390 |  |  | CNC(=O)c1cc(C)c(F)c(-c2cnc3cc(-c4cnn(C)c4)c(O[C@H]4CCOC4)nn23)c1 |  |
| 118 | 82 | 66 |  |  | CNC(=O)c1cccc(-c2cnc3cc(-c4cnn(C)c4)c(O[C@H]4CCOC4)nn23)c1 |  |
| 285 | 1450 | 1740 | 3900 | 5.7 | CNC(=O)c1cc(F)c(F)c(-c2cnc3cc(-c4cnn(C)c4)c(O[C@H]4CCOC4)nn23)c1 | solubility [5]: 118 µg/mL (≈ 260 µM); solubility [6]: > 400 µg/mL; QH [7]: 3.3%; Vd [8]: 0.35 L/kg; half-life [9]: 5.3 h; Cmax [10]: 6.17 µM; AUC at 24 h [11]: 33.6 µM·h; bioavailability [12]: 54% |
|  |  |  | 9000 | 1.5 | CNC(=O)c1cncc(-c2cnn3cc(-c4cnn(C(C)C)c4)c(O[C@H]4CCOC4)nc23)c1 | solubility [5]: 17 µg/mL (≈ 38 µM); solubility [6]: > 400 µg/mL; Activity (Mus musculus): Active |
